Experimental data reported in patent US4401827A, “Novel acyl-derivatives of carnitine and process for their preparation” (Sigma-Tau, priority 1978, dated 1983).
Where two headings read alike, the source gives them in different places.

Experiments:
rabbit hearts = test: cardiokinetic effect on isolated rabbit heart (Langendorff) after anoxia; details: equal concentrations in perfusion fluid, Student's t test versus controls
Procedure: The cardiokinetic effect on isolated heart was also investigated as follows. Rabbit hearts isolated by the Langendorff method were perfused with oxygenized ringer solution at 38.2° C. The isometric contractions, electrocardiogram and coronary flow were recorded using a "Battaglia-Rangoni" polygraph. By removing the oxygen from the perfusion fluid, metabolic damage was induced in the cardiac muscle, up to an 80% reduction in the cardiac contractile force.
Under these conditions of prolonged anoxia the aerobic glycolysis of the myocardium is slowed down, accompanied by the storage of acid catabolites due to both the accumulation of pyruvic acid and its conversion to lactic acid which cannot be utilized because of the depression of pyridine enzymes, such as LDH (lactodehydrogenase). This has repercussions on the anaerobic glycolysis affecting an ever increasing number of enzymes, accompanied by a progressive and increasingly critical exhaustion of the myocardium. Thus a whole series of cardiac muscle fatigue levels occurs which can be observed by the behavior of the examined parameters, namely the contractile force, coronary flow, heart rate and cardiac rhythm. As soon as the contractile force was reduced by 80%, the perfusion fluid was once again oxygenized either without adding other compounds (controls) or with the addition of the compounds under examination.
Table 2 below gives the percentage values of the contractile force of the heart, showing a positive inotropic effect, calculated after 10 minutes from the interruption of the anoxic period (myocardial restoration).
of some acyl derivatives of formula (I) on the contractile
force of rabbit's heart. (Details are given in the text)

[1] = acute toxicity (tolerance) i.p. in mice, Weil method; details: mouse, in vivo, ip, Weil method (N = 5, K = 4)
Description: The tolerance of the Acyl-carnitines of the formula (I), as well as their salts administered by intraperitoneal route was investigated in mice using the Weil Method (1).
LD50, mg kg^-1 i.p. in mice,
of some acyl derivatives of formula (1).
Weil method (N = 5, K = 4)

rat's ventricle strip = test: antiarrhythmic effect, isolated rat ventricle strip test; details: for inhibition at 1 µM / activation at 1 µM: Rattus norvegicus, concentration 1·10^-6 M; for inhibition at 1 µM: decrease; for activation at 1 µM: increase
Description: (2) M. Libonati and G. Segre, Archivio Italiano di Scienze Farmacologiche. Serie XIII, Vol. X, pag. 3, (1960)
effect of some acyl derivatives (concentration 1 · 10^-6
of the formula (1) on the rat's ventricle strip test.
% variation versus basal value.

[2] = test system: arrhythmia induced by Aconitine in mice; test: arrhythmia induced by Aconitine in mice; assay type: in vivo; details: for change in vivo at 150 mg/kg / change in vivo at 300 mg/kg / change in vivo at 75 mg/kg / change in vivo at 89 mg/kg / change in vivo at 40 mg/kg: Mus musculus, iv; for antiarrhythmic activity (in words): Aconitine, mice
Procedure: The antiarrhythmic effect of the compounds was also investigated in mice according to the P. W. Nwangwu, T. Holcslow procedure (4). Using Aconitine (5 mg/ml) as arrhythmogenic agent, the changes in the cardiac rhythm of the animals were recorded and the onset time of initial arrhythmia and/or of ventricular tachycardia were used as End point.
Antiarrhythmic agents display an increase in the latency time of initial ECG change.
(4) P. W. Nvangvu, T. L. Holcslow, Arch. Int. Pharmacodyn. 229, 219 (1977)
on the arrhythmia induced by Aconitine (5 γ/ml) in mice.
% increase of the time to onset of initial cardiac arrythmia

[3] = test system: plasma cholesterol, triglycerides and lipoproteins in rat; test: plasma cholesterol, triglycerides and lipoproteins in rat treated with olive oil; assay type: in vivo; details: for lipoproteic pattern altered due to oil administration (in words): rats, single treatment
Procedure: In the rats the lipoproteic pattern altered due to an oil administration by gavage, was restored after a single treatment with d,l dipropyl ACAR; d,l ethyl exanoyl CAR; d,l 3 bromopropionyl CAR and d,l pyruvyl CAR.
The effect of some acyl derivatives of formula (I) on plasma cholesterol,
triglycerides and lipoproteins in rat
treated with olive oil, 15 ml kg^-1 orally. Mean Values ± SEM
Student "t" test .quadrature., Δ and indicate respectively a non
significant difference, a P ≤ 1% and 1%.

[4] = read-out: maximed frequency (- %), % variation versus basal value
[5] = read-out: whole excitability (- %), % variation versus basal value
[6] = read-out: refractory period (+ %), % variation versus basal value
[7] = read-out: rheobase (+ %), % variation versus basal value
[8] = read-out: latency time increase % of controls, arrhythmias
[9] = read-out: latency time increase % of controls, tachycardia

| Structure (SMILES) | LD50 [1] [mg/kg] | inhibition at 1 µM (rat's ventricle strip; [4]) [%] | inhibition at 1 µM (rat's ventricle strip; [5]) [%] | activation at 1 µM (rat's ventricle strip; [6]) [%] | activation at 1 µM (rat's ventricle strip; [7]) [%] | change in vivo at 150 mg/kg [2, 8] [%] | change in vivo at 150 mg/kg [2, 9] [%] | change in vivo at 300 mg/kg [2, 8] [%] | change in vivo at 300 mg/kg [2, 9] [%] | further results |
| --- | --- | --- | --- | --- | --- | --- | --- | --- | --- | --- |
| C[N+](C)(C)CC(CC(=O)[O-])OC(=O)CCBr (centres unmarked) [bromopropionyl] |  |  |  |  |  |  |  |  |  | positive inotropic effect (in words) (rabbit hearts): greater positive inotropic effect than that of the other compounds under examination |
| C[N+](C)(C)CC(CC(=O)[O-])OC(=O)C=Cc1cccc(Br)c1 (racemic) [d,l m-bromocinnamoyl CAR] | 650 | 28.5 | 50.4 | 45.2 | 38.1 | 40 | 28 |  |  |  |
| CCCCC(CC)C(=O)OC(CC(=O)[O-])C[N+](C)(C)C (racemic) [d,l 2-ethylhexanoyl CAR] | 950 | 25.5 | 40.3 | 22.8 | 21.8 |  |  | 20 | 10 | lipoproteic pattern altered due to oil administration (in words) [3]: restored |
| CCC(CC)C(=O)OC(CC(=O)[O-])C[N+](C)(C)C (racemic) [d,l diethyl ACAR] | 1200 | 25.1 | 27.5 | 31.2 | 20.6 |  |  | 25 | 32 |  |
| C[N+](C)(C)CC(CC(=O)[O-])OC(=O)Cc1ccc2ccccc2c1 (racemic) [d,l naphtalene ACAR] | 880 | 41.2 | 40.1 | 39.3 | 41.2 |  |  |  |  | change in vivo at 75 mg/kg [2, 8]: 25%; change in vivo at 75 mg/kg [2, 9]: 10% |
| Cc1ccc(C=CC(=O)OC(CC(=O)[O-])C[N+](C)(C)C)cc1 (racemic) [d,l p-methylcinnamoyl CAR] | 620 | 38.6 | 71.1 | 45.3 | 32.4 | 20 | 9 |  |  |  |
| C[N+](C)(C)C[C@@H](CC(=O)[O-])OC(=O)CCBr [l 3-Br--propionyl CAR] | 960 | 50.5 | 60.2 | 45.1 | 42.4 | 25 | 12 |  |  |  |
| C=C[C@H]1C[N@@]2CC[C@H]1C[C@@H]2[C@@H](O)c1ccnc2ccc(OC)cc12 [Quinidine, reference compound] |  | 72.5 | 191 | 57.4 | 51.2 |  |  |  |  | change in vivo at 89 mg/kg [2, 8]: 50%; change in vivo at 89 mg/kg [2, 9]: 41.7% |
| C[N+](C)(C)CC(CC(=O)[O-])OC(=O)CCCCl (racemic) [d,l 4-Cl--butyryl CAR] | 850 | 60.2 | 55.1 | 38.3 | 35.2 |  |  | 20 | 10 | antiarrhythmic properties (in words) (rat's ventricle strip; isolated rat ventricle method): most clear out antiarrhythmic properties |
| CC(C)(C)C(=O)O[C@H](CC(=O)[O-])C[N+](C)(C)C [l pivaloyl CAR] | 618 | 60.4 | 48.1 | 38.3 | 35.1 |  |  | 25 | 15 |  |
| C[N+](C)(C)CC(CC(=O)[O-])OC(=O)C=Cc1cccc(C(F)(F)F)c1 (racemic) [d,l trifluoromethylcinnamoyl CAR] | 845 | 41.3 | 24.3 | 25.7 | 19.5 |  |  |  |  | change in vivo at 40 mg/kg [2, 8]: 50%; change in vivo at 40 mg/kg [2, 9]: 30% |
| CCCC(CCC)C(=O)O[C@@H](CC(=O)[O-])C[N+](C)(C)C [d dipropyl ACAR] | 1600 | 22.4 | 25.5 | 38.3 | 21.7 |  |  |  |  | change in vivo at 40 mg/kg [2, 8]: 50%; change in vivo at 40 mg/kg [2, 9]: 30% |
| C[N+](C)(C)CC(CC(=O)[O-])OC(=O)C1CCCCC1 (racemic) [d,l cyclohexyl CAR] | 850 | 22.1 | 26.4 | 15.8 | 18.2 |  |  | 50 | 38 |  |
| C[N+](C)(C)C[C@@H](CC(=O)[O-])OC(=O)C=Cc1cccc(C(F)(F)F)c1 [l trifluoromethylcinnamoyl CAR] | 540 | 32.7 | 60.5 | 40.1 | 39.2 |  |  |  |  | change in vivo at 40 mg/kg [2, 8]: 60%; change in vivo at 40 mg/kg [2, 9]: 45% |
| CC(C)Cc1ccc(CC(=O)OC(CC(=O)[O-])C[N+](C)(C)C)cc1 (racemic) [d,l p-isobutyl phenyl ACAR] | 378 | 38.2 | 35.2 | 22.5 | 22.2 |  |  | 20 | 10 |  |
| CC(C)(C)C(=O)OC(CC(=O)[O-])C[N+](C)(C)C (racemic) [d,l pivaloyl CAR] | 855 | 58.4 | 65.5 | 40.6 | 40.2 |  |  | 20 | 10 |  |
| C[N+](C)(C)CC(CC(=O)[O-])OC(=O)CCBr (racemic) [d,l 3-Br--propionyl CAR] | 950 | 17.3 | 39.7 | 40.2 | 26.1 | 20 | 10 |  |  | Lipoproteins, VLDL ([3]; olive oil 15 ml kg^-1 orally, compound ip, mean ± SEM, N = 8, oil control 15.84 ± 1.53): 11.22 ± 1.22%; Lipoproteins, HDL ([3]; olive oil 15 ml kg^-1 orally, compound ip, mean ± SEM, N = 8, oil control 24.18 ± 2.15): 30.45 ± 2.87%; Lipoproteins, LDL ([3]; olive oil 15 ml kg^-1 orally, compound ip, mean ± SEM, N = 8, oil control 57.38 ± 2.25): 51.26 ± 2.49%; cholesterol ([3]; olive oil 15 ml kg^-1 orally, compound ip, mean ± SEM, N = 8, oil control 88.33 ± 2.96): 76.18 ± 3.02 mg/100 ml; triglycerides ([3]; olive oil 15 ml kg^-1 orally, compound ip, mean ± SEM, N = 8, oil control 213.66 ± 28.68): 123.48 ± 12.16 mg/100 ml; lipoproteic pattern altered due to oil administration (in words) [3]: restored |
| C[N+](C)(C)CC(CC(=O)[O-])OC(=O)CCC1CCCCC1 (racemic) [d,l cyclohexylpropionyl CAR] | 955 | 45.3 | 25.5 | 12.5 | 22.4 | 70 | 55 |  |  | antiarrhythmic activity (in words) [2]: markedly exhibited |
| C[N+](C)(C)CC(CC(=O)[O-])OC(=O)C=Cc1ccc(Cl)cc1 (racemic) [d,l p-chlorocinnamoyl CAR] | 935 | 25.1 | 22.2 | 22.3 | 20.4 |  |  | 25 | 10 |  |
| COc1ccc(C=CC(=O)OC(CC(=O)[O-])C[N+](C)(C)C)cc1 (racemic) [d,l p-methoxycinnamoyl CAR] | 440 | 22.2 | 31.5 | 36.1 | 22.2 | 70 | 56 |  |  | antiarrhythmic activity (in words) [2]: markedly exhibited |
